Results from patent US20110201596A1, “Methods for Providing Oxidatively Stable Ophthalmic Compositions” (priority 2005, published 2011).
Where a name gives a salt, the structure may show the parent alone.

Test: Stability of ketotifen fumarate in borate buffered saline over autoclave cycles, analysed by HPLC
Type: physicochemical
Conditions: for % ketotifen: no PAA; for % ketotifen Unsparged: Example 3: buffer with poly(acrylic acid); for % ketotifen Nitrogen Sparged: Example 4: buffer with poly(acrylic acid); for ketotifen stability: after autoclaving
Method: A buffer solution was formed by dissolving 8.3 gm NaCl (from Sigma Aldrich), 9.1 gm boric acid (from Mallinckrodt) and 1 gm sodium borate (from Mallinckrodt) in 1 L deionized water (from Milli Q). […] Ketotifen fumarate (from Sigma Aldrich) was added to prepare a solution of approximately 80 ppm in the buffer solution. The ketotifen solution (3 mL) was placed in vials, autoclaved for the number of cycles shown in Table 1, below and analyzed as a function of autoclave cycle (3 replicate per autoclave cycle) using HPLC using an HP1100 and an Agilent Zorbax Eclipse XDB-C18 and Rapid Resolution HT 50×4.6 mm×1.8μ column and the following conditions:
Mobile Phase: • Eluent A: 17% acetonitrile in 0.025 M dihydrogen potassium phosphate buffer • 0.2% triethylamine, 0.13% o-phosphoric acid • Eluent B: 50% acetonitrile in 0.025 M dihydrogen potassium phosphate buffer • 0.2% triethylamine, 0.13% o-phosphoric acid
Example 1 was repeated, except that the buffer solution was sparged (with nitrogen) overnight (˜12 hrs) at about 370 standard cubic centimeter per minute (SCCM) and subsequently transferred to a nitrogen box (<0.5% oxygen). The ketotifen solution of about 90 ppm was prepared and placed in vials as described above, but in nitrogen box. The vials were autoclaved and analyzed as described in Example 1.
Examples 1 and 2 was repeated, except that 10 gm of poly(acrylic acid) (PAA, Mw, 225,000, from Polysciences, Inc., 20% in water) was added to the buffer solution. The vials were autoclaved and analyzed as described in Example 1.

% ketotifen (Example 1: ~80 ppm in buffer pH 7.65, unsparged, autoclave cycle 0): 100%
% ketotifen (Example 1: ~80 ppm in buffer pH 7.65, unsparged, autoclave cycle 1): 0%
% ketotifen (Example 1: ~80 ppm in buffer pH 7.65, unsparged, autoclave cycle 2): 0%
% ketotifen (Example 1: ~80 ppm in buffer pH 7.65, unsparged, autoclave cycle 3): 0%
% ketotifen (Example 2: ~90 ppm, buffer nitrogen sparged ~12 hrs, nitrogen box, autoclave cycle 0): 100%
% ketotifen (Example 2: ~90 ppm, buffer nitrogen sparged ~12 hrs, nitrogen box, autoclave cycle 1): 98%
% ketotifen (Example 2: ~90 ppm, buffer nitrogen sparged ~12 hrs, nitrogen box, autoclave cycle 2): 98%
% ketotifen (Example 2: ~90 ppm, buffer nitrogen sparged ~12 hrs, nitrogen box, autoclave cycle 3): 98%
% ketotifen Unsparged (autoclave cycle 0): 100%
% ketotifen Unsparged (autoclave cycle 1): 94%
% ketotifen Unsparged (autoclave cycle 2): 81%
% ketotifen Unsparged (autoclave cycle 3): 66%
% ketotifen Nitrogen Sparged (autoclave cycle 0): 100%
% ketotifen Nitrogen Sparged (autoclave cycle 1): 99%
% ketotifen Nitrogen Sparged (autoclave cycle 2): 99%
% ketotifen Nitrogen Sparged (autoclave cycle 3): 98%
ketotifen stability (buffer sparged and solution kept under nitrogen (Table 2)): 98%
ketotifen stability (unsparged buffer (Table 1)): 0%
Compound: CN1CCC(=C2c3ccccc3CC(=O)c3sccc32)CC1 [ketotifen, Ketotifen fumarate]
